The results in this text go back to ChEMBL document CHEMBL4145665, “Structure-Activity Relationship of Novel and Selective Biaryl-Chroman GPR40 AgoPAMs” (ACS Med Chem Lett, 2018).

Series [1] deals with Rattus norvegicus. Kind of series: Antidiabetic activity in Sprague-Dawley rat assessed as inhibition of blood glucose AUC at 3 mg/kg, po treated prior to dextrose challenge and measured after 20 to 60 mins by IPGTT relative to control. In kind it is functional.
The nature of series [2]: Volume of distribution at steady state in Wistar-Han rat at 1 mg/kg, iv or 2 mg/kg, po administered as single dose. In kind it is ADME, organism-based. The conditions noted are these: in vivo, read-out: Vdss.
Series [3] has as its target T1, Free fatty acid receptor 4 (Homo sapiens, UniProt Q5NUL3).
T1 sequence (Q5NUL3 whole entry): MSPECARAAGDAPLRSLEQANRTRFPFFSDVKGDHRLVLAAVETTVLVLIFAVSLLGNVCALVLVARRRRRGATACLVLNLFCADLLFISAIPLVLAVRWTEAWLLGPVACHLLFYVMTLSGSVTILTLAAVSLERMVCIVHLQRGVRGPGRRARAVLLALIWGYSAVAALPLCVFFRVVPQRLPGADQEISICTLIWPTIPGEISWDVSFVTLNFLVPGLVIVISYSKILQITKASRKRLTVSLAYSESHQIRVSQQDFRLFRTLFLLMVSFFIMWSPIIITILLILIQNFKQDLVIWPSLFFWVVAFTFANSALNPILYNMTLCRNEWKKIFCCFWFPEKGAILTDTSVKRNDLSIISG
Kind of series: Agonist activity at GPR120 (unknown origin). In kind it is functional.

A short description of series [4]: Fraction unbound in Wistar-Han rat plasma at 1 mg/kg, iv or 2 mg/kg, po administered as single dose. The format is ADME, organism-based.
Series [5] concerns Rattus norvegicus. Kind of series: Antidiabetic activity in po dosed Goto Kakizaki rats assessed as reduction in blood glucose excursion pretreated for 1 hr followed by dextrose challenge measured after 20 to 60 mins by OGTT method. In kind it is functional. Particulars: read-out: MED.
The target in series [6] is Free fatty acid receptor 1 (Rattus norvegicus, UniProt Q8K3T4). In words: Agonist activity at recombinant rat GPR40 expressed in CHOK1 cells assessed as increase in IP1 accumulation measured after 60 mins by HTRF assay. In kind it is functional, cell-based. Background: In TR-FRET formats the signal depends on donor and acceptor labels being close together.
In series [7] the target is T2, Free fatty acid receptor 1 (Homo sapiens, UniProt O14842). In words: Agonist activity at recombinant human GPR40 expressed in HEK293 cells assessed as increase in IP1 accumulation measured after 60 mins in presence of 100% human serum by HTRF assay. The format is functional, cell-based.
Series [8] in a line: Lipophilicity, log D of the compound at pH 7 at 100 uM by HPLC method. The format is physicochemical. Particulars: buffer.
The next series concerns the target Bile salt export pump (Homo sapiens, UniProt O95342). In words: Inhibition of human BSEP expressed in baculovirus infected Sf9 insect cell membrane vesicles assessed as reduction in ATP-dependent [3H]-taurocholic acid uptake. The format is ADME.
Series [9] has as its target T2, Free fatty acid receptor 1. In words: Agonist activity at recombinant human GPR40 expressed in HEK293 cells assessed as increase in IP1 accumulation measured after 60 mins by HTRF assay. The format is functional, cell-based.
The nature of series [10]: Effective half life in Wistar-Han rat at 1 mg/kg, iv or 2 mg/kg, po administered as single dose. The format is ADME, organism-based. Particulars: in vivo, read-out: t1/2eff (converted).
Series [11] can be described thus: Clearance in Wistar-Han rat at 1 mg/kg, iv or 2 mg/kg, po administered as single dose. Particulars: in vivo. The format is ADME, organism-based.
The nature of series [12]: Oral bioavailability in Wistar-Han rat at 2 mg/kg administered as single dose. The conditions noted are these: in vivo. The format is ADME, organism-based.
In series [13] the test system is Rattus norvegicus. Kind of series: Antidiabetic activity in Goto Kakizaki rats assessed as inhibition of blood glucose AUC at 30 mg/kg, po pretreated for 1 hr followed by dextrose challenge measured after 20 to 60 mins by OGTT method relative to control. In kind it is functional.
The test system of series [14] is Rattus norvegicus. In words: Antidiabetic activity in Goto Kakizaki rats assessed as inhibition of blood glucose AUC at 10 mg/kg, po pretreated for 1 hr followed by dextrose challenge measured after 20 to 60 mins by OGTT method relative to control. In kind it is functional.
The subject of series [15] is Rattus norvegicus. In words: Antidiabetic activity in Goto Kakizaki rats assessed as inhibition of blood glucose AUC at 0.3 mg/kg, po pretreated for 1 hr followed by dextrose challenge measured after 20 to 60 mins by OGTT method relative to control. The format is functional.
The test system of series [16] is Rattus norvegicus. In words: Antidiabetic activity in Goto Kakizaki rats assessed as inhibition of blood glucose AUC at 3 mg/kg, po pretreated for 1 hr followed by dextrose challenge measured after 20 to 60 mins by OGTT method relative to control. The format is functional.
For series [17], the system named is Rattus norvegicus. Kind of series: Antidiabetic activity in Goto Kakizaki rats assessed as inhibition of blood glucose AUC at 1 mg/kg, po pretreated for 1 hr followed by dextrose challenge measured after 20 to 60 mins by OGTT method relative to control. The format is functional.
The subject of series [18] is Rattus norvegicus. Kind of series: Antidiabetic activity in Goto Kakizaki rats assessed as plasma concentration required for reduction in blood glucose excursion at 30 mg/kg, po pretreated for 1 hr followed by dextrose challenge measured 3 hrs post dose by OGTT. In kind it is functional, organism-based.
In series [19] the test system is Rattus norvegicus. In words: Antidiabetic activity in Goto Kakizaki rats assessed as plasma concentration required for reduction in blood glucose excursion at 3 mg/kg, po pretreated for 1 hr followed by dextrose challenge measured 3 hrs post dose by OGTT. The format is functional, organism-based.
In series [20] the target is T2, Free fatty acid receptor 1. In words: Agonist activity at recombinant human GPR40 expressed in HEK293 cells assessed as increase in IP1 accumulation measured after 60 mins by HTRF assay relative to AM-1638. In kind it is functional, cell-based.
The subject of series [21] is Rattus norvegicus. In words: Antidiabetic activity in Goto Kakizaki rats assessed as plasma concentration required for reduction in blood glucose excursion at 0.3 mg/kg, po pretreated for 1 hr followed by dextrose challenge measured 3 hrs post dose by OGTT. In kind it is functional, organism-based.
The target in series [22] is T2, Free fatty acid receptor 1. Kind of series: Agonist activity at recombinant human GPR40 expressed in HEK293 cells assessed as increase in IP1 accumulation measured after 60 mins in presence of 100% human serum by HTRF assay relative to AM-1638. The format is functional, cell-based.
For series [23], the system named is Rattus norvegicus. Kind of series: Antidiabetic activity in Goto Kakizaki rats assessed as plasma concentration required for reduction in blood glucose excursion at 1 mg/kg, po pretreated for 1 hr followed by dextrose challenge measured 3 hrs post dose by OGTT. The format is functional, organism-based.
For series [24], the target named is Free fatty acid receptor 1 (Rattus norvegicus) (UniProt Q8K3T4). Kind of series: Agonist activity at recombinant rat GPR40 expressed in CHOK1 cells assessed as increase in IP1 accumulation measured after 60 mins by HTRF assay relative to AM-1638. In kind it is functional, cell-based.
The test system of series [25] is Rattus norvegicus. In words: Antidiabetic activity in po dosed Goto Kakizaki rats assessed as plasma concentration required for reduction in blood glucose excursion at MED pretreated for 1 hr followed by dextrose challenge measured 3 hrs post dose by OGTT. In kind it is functional, organism-based.
For series [26], the system named is Rattus norvegicus. In words: Antidiabetic activity in Goto Kakizaki rats assessed as plasma concentration required for reduction in blood glucose excursion at 10 mg/kg, po pretreated for 1 hr followed by dextrose challenge measured 3 hrs post dose by OGTT. In kind it is functional, organism-based.

The structures appear in SMILES notation.

T2 sequence (O14842 whole entry): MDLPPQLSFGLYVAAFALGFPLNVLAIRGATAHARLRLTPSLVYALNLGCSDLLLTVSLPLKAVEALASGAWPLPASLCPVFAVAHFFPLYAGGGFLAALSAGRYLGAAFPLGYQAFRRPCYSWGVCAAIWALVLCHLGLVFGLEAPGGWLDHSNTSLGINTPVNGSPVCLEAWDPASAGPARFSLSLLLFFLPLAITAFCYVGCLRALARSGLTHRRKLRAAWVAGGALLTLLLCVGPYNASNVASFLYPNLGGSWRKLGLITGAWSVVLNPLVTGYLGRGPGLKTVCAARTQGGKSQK
Sequence of Bile salt export pump (O95342 whole entry): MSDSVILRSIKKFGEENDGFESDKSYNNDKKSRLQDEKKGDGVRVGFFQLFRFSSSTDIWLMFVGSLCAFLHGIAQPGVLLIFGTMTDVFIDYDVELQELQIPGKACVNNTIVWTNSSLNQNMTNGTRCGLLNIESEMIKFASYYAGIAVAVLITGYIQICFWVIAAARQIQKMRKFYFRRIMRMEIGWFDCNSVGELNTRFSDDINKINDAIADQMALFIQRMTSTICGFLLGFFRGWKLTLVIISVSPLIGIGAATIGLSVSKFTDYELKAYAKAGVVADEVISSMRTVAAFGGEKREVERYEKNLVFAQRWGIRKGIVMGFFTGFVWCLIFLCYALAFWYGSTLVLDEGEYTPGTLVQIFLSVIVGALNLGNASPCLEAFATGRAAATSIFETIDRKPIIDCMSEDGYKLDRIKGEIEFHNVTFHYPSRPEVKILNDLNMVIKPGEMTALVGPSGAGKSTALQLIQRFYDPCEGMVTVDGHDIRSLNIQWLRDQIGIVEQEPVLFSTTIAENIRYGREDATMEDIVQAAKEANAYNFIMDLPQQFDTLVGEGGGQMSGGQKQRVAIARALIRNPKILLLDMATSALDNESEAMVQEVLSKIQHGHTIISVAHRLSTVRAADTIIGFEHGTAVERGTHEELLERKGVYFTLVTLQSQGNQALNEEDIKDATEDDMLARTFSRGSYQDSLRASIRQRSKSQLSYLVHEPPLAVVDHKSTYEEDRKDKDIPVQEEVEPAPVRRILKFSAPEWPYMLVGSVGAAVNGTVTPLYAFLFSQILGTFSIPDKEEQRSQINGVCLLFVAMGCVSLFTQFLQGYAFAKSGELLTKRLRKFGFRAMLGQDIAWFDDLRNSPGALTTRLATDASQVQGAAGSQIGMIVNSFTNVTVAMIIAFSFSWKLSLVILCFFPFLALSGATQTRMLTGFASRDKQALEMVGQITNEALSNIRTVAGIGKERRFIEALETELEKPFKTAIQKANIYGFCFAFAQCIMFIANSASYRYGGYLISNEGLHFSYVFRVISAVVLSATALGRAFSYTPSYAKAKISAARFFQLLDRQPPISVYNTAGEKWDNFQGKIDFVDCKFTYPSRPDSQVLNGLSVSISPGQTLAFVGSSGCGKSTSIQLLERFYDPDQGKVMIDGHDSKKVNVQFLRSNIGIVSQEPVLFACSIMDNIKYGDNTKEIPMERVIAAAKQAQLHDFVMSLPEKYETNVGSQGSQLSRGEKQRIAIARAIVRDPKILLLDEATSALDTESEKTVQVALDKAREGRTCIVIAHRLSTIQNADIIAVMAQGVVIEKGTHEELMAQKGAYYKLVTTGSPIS
Sequence of Free fatty acid receptor 1 (Rattus norvegicus, UniProt Q8K3T4) (Q8K3T4 whole entry): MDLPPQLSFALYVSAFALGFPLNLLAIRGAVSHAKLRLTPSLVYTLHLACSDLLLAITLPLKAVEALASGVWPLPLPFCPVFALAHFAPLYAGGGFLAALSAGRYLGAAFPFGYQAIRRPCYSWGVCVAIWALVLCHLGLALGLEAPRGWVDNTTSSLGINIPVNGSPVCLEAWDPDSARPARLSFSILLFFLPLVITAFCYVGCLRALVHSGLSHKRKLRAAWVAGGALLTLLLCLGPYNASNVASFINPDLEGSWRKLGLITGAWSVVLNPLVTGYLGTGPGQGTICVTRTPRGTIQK
Sequence of Free fatty acid receptor 1 (Rattus norvegicus) (Q8K3T4 whole entry): as above

In the case of `COc1ccc(F)c(-c2ccc(C3CCc4ccc([C@H](C5CC5)[C@H](C)C(=O)[O-])cc4O3)cc2)c1.[Na+]` (stereo in doubt; 14), the “inhibition (INH)” value in the series with Rattus norvegicus [1] stood at 103%. The Vd in series [2] was found to be 0.41 L/kg. Moreover, the 50% effective concentration (EC50) in series [3] was greater than 10000 nM; in [6], 1.2 nM; in [7], 146 nM; in series [9] it was 1.1 nM. Further, the fraction unbound in [4] came out at 0.005. Also, in the series with Rattus norvegicus [5], the minimal effective dose worked out at 10 mg/kg. The logD at 100 µM in [8] was found to be 2.94. In addition, on Bile salt export pump, the IC50 was 1400 nM. The half-life in [10] was 3.5 h. The same compound came in with a clearance in series [11] of 3.1 mL/min/kg. The bioavailability in [12] was determined as 50%.
Turning to `COc1ccc(F)c(-c2ccc(C3CCc4ccc([C@H](C5CC5)[C@H](C)C(=O)[O-])cc4O3)nc2)c1.[Na+]` (stereo in doubt; 16), the “inhibition (INH)” value in the series with Rattus norvegicus [1] was 99%. The EC50 in [3] is greater than 10000 nM; in series [6], 2.3 nM. Besides, the fraction unbound in series [4] is 0.003. The minimal effective dose with Rattus norvegicus [5] came to 30 mg/kg. This compound registered a logD at 100 µM in [8] of 2.25. Besides, the IC50 at Bile salt export pump was 300 nM.
On to `COc1cc(-c2ccc(C3CCc4ccc([C@H](C5CC5)[C@H](C)C(=O)[O-])cc4O3)nc2)c(F)cn1.[Na+]` (stereo in doubt; 29), for which the inhibition in vivo at 30 mg/kg with Rattus norvegicus [13] was 121%. Moreover, the inhibition in vivo at 3 mg/kg was found to be 108% with Rattus norvegicus [1] (Rattus norvegicus, Sprague-Dawley, po) and 96% in the series with Rattus norvegicus [16]. In addition, the Vd in series [2] worked out at 0.41 L/kg. For the same compound, the EC50 in series [3] is greater than 10000 nM; in series [6] it was 5.2 nM; in series [7], 243 nM; in series [9], 2.7 nM. For the same compound, the fraction unbound in series [4] was found to be 0.001. Moreover, in the series on Rattus norvegicus [14], the inhibition in vivo at 10 mg/kg stood at 111%. Also, the minimal effective dose in the series with Rattus norvegicus [5] was determined as 30 mg/kg. The IC50 at Bile salt export pump came to 3200 nM. In addition, in the series on Rattus norvegicus [15], the inhibition in vivo at 0.3 mg/kg came to 35%. Moreover, the inhibition in vivo at 1 mg/kg in the series on Rattus norvegicus [17] turned out to be 69%. Further, the half-life in series [10] was 6.4 h. This compound also yielded a clearance in [11] of 1.2 mL/min/kg. In series [12], this compound registered a bioavailability of 100%.
`COc1cc(-c2ccc(C3CCc4ccc([C@H](C5CC5)[C@H](C)C(=O)O)cc4O3)nc2)c(F)cn1` (stereo in doubt; 29): the Cp with Rattus norvegicus [18] was found to be 32 µM; in the series with Rattus norvegicus [19], 5.4 µM; with Rattus norvegicus [21] it was 0.44 µM; with Rattus norvegicus [23], 2 µM; with Rattus norvegicus [25] it was 32 µM; in the series with Rattus norvegicus [26], 11 µM. Moreover, the max activation in series [20] is greater than 179%; in series [22], greater than 179%; in series [24] it was greater than 370%.

In general, EC50 refers to the concentration giving half of the maximal effect. In general, fraction unbound refers to free concentration divided by total concentration. Broadly, the logD is the decadic logarithm of the distribution of all forms, ionised or not, between an organic phase and buffer at a given pH. High values mean a more lipophilic compound, low ones a more hydrophilic compound. As a reminder, the IC50 is the concentration that inhibits the measured activity by half. The bioavailability is the share of a dose that reaches the circulation, judged against a reference dose that is usually intravenous. As usually defined, the inhibition in vivo is the relative decrease from the control value, in per cent.
